Biological target: PIK3CA (human) (UniProt P42336)
Experiment: Assessment of PIK3CA Kinase Activity

PIK3CA (human), sequence (P42336 whole entry, looked up): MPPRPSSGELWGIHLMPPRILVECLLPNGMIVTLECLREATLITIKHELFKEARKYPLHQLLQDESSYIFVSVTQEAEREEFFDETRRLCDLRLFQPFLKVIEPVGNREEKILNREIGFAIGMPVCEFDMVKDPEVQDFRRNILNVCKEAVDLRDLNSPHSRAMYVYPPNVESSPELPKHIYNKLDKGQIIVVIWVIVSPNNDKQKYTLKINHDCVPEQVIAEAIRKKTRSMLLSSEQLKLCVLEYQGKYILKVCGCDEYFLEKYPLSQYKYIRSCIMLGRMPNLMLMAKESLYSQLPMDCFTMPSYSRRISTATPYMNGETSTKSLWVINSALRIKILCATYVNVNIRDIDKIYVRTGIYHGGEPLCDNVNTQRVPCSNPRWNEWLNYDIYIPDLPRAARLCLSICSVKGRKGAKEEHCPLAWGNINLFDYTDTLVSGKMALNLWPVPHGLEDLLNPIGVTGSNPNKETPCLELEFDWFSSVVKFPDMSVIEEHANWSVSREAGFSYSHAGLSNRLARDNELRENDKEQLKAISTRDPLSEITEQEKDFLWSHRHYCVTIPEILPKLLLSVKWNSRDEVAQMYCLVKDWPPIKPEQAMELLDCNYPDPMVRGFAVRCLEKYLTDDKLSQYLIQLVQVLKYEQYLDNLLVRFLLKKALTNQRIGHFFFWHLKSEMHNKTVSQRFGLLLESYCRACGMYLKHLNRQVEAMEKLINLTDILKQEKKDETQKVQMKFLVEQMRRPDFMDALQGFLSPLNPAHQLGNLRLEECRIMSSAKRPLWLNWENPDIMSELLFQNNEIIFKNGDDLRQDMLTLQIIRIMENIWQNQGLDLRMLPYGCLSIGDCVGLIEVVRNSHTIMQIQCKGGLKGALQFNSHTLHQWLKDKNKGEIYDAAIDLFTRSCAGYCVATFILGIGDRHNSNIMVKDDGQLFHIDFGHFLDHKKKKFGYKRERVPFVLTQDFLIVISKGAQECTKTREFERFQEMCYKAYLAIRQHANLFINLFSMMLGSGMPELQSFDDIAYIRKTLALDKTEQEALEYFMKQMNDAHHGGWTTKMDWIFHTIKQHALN

Structure (SMILES)	IC50 [nM]
CN(Cc1cc2nc(-c3ccc(Cl)cc3)nc(N3CCOCC3)c2s1)c1ncc(C(=O)NO)cn1	> 10000
CNc1ccc(-c2nc(N3CCOCC3)c3sc(C(=O)NCC4CCN(c5ncc(C(=O)NO)cn5)CC4)cc3n2)cn1	< 100
CCN(CC)c1ccc(-c2nc(N3CCOCC3)c3sc(CN(C)c4ncc(C(=O)NO)cn4)cc3n2)cc1	> 10000
Cn1cc(-c2nc(N3CCOCC3)c3sc(CN(CCO)c4ncc(C(=O)NO)cn4)cc3n2)cn1	100 to 1000
COc1ncc(-c2nc(N3CCOCC3)c3sc(C(C)N(C)c4ncc(C(=O)NO)cn4)cc3n2)cn1 (centres undefined)	< 100
CS(=O)(=O)N1CCN(Cc2cc3nc(-c4cccc5[nH]ncc45)nc(N4CCN(CCCCC(=O)NO)CC4)c3s2)CC1	> 10000
CS(=O)(=O)N1CCN(Cc2cc3nc(-c4ccc(OCCCCCC(=O)NO)cc4)nc(N4CCOCC4)c3s2)CC1	100 to 1000
CNc1ccc(-c2nc(N3CCOCC3)c3sc(C(C)(C)N(C)c4ncc(C(=O)NO)cn4)cc3n2)cn1	100 to 1000
CN(Cc1cc2nc(-c3ccc(N)cc3Cl)nc(N3CCOCC3)c2s1)c1ncc(C(=O)NO)cn1	< 100
CN(Cc1cc2nc(-c3cccc(SCCO)c3)nc(N3CCOCC3)c2s1)c1ncc(C(=O)NO)cn1	100 to 1000
COc1ccc(-c2nc(N3CCOCC3)c3sc(CN(C)c4ncc(C(=O)NO)cn4)cc3n2)cc1	> 10000
Nc1ncc(-c2nc(N3CCOCC3)c3sc(NCCCCCCC(=O)NO)cc3n2)cn1	< 100
CCCc1nc2cc(C=CC(=O)NO)ccc2n1CCN(C)Cc1cc2nc(-c3ccc(NC)nc3)nc(N3CCOCC3)c2s1	100 to 1000
COc1ccc(-c2nc(N3CCOCC3)c3sc(C(C)N(C)c4ncc(C(=O)NO)cn4)cc3n2)cn1 (centres undefined)	< 100
CN(Cc1cc2nc(-c3ccc(N)c(C#N)c3)nc(N3CCOCC3)c2s1)c1ncc(C(=O)NO)cn1	100 to 1000
Cc1ncc(-c2nc(N3CCOCC3)c3sc(CN(CCO)c4ncc(C(=O)NO)cn4)cc3n2)s1	100 to 1000
COc1cccc(Nc2nc(-c3cccc4[nH]ncc34)nc3cc(CN(C)c4ncc(C(=O)NO)cn4)sc23)c1	> 10000
CN(C)c1ccc(-c2nc(N3CCOCC3)c3sc(CN(C)c4ncc(C(=O)NO)cn4)cc3n2)cc1	> 10000
CS(=O)(=O)N1CCN(Cc2cc3nc(-c4cccc5[nH]ncc45)nc(NCCCCCCC(=O)NO)c3s2)CC1	> 10000
CC(=O)N1CCN(c2nc(-c3cccc4[nH]ncc34)nc3cc(CN(C)c4ncc(C(=O)NO)cn4)sc23)CC1	> 10000
CC(=O)NCc1ccc(-c2nc(N3CCOCC3)c3sc(CN(C)c4ncc(C(=O)NO)cn4)cc3n2)cc1	> 10000

Structure (SMILES)	IC50 [nM]
COc1ccc(Nc2nc(-c3cccc4[nH]ncc34)nc3cc(CN(C)c4ncc(C(=O)NO)cn4)sc23)cc1	> 10000
CN(Cc1cc2nc(-c3ccc4[nH]c(=O)[nH]c4c3)nc(N3CCOCC3)c2s1)c1ncc(C(=O)NO)cn1	> 10000
CN(Cc1cc2nc(-c3cccc4[nH]c(=O)[nH]c34)nc(N3CCOCC3)c2s1)c1ncc(C(=O)NO)cn1	100 to 1000
CN(Cc1cc2nc(-c3cccc(NS(C)(=O)=O)c3)nc(N3CCOCC3)c2s1)c1ncc(C(=O)NO)cn1	> 10000
CN(Cc1cc2nc(-c3ccc(N)c(O)c3)nc(N3CCOCC3)c2s1)c1ncc(C(=O)NO)cn1	< 100
Nc1ccc(-c2nc(N3CCOCC3)c3sc(CN(CCO)c4ncc(C(=O)NO)cn4)cc3n2)cc1	< 100
CN(Cc1cc2nc(-c3cccc4[nH]ncc34)nc(N3CCNCC3)c2s1)c1ncc(C(=O)NO)cn1	> 10000
CC(=O)c1cccc(-c2nc(N3CCOCC3)c3sc(CN(C)c4ncc(C(=O)NO)cn4)cc3n2)c1	100 to 1000
CC(O)c1cccc(-c2nc(N3CCOCC3)c3sc(CN(C)c4ncc(C(=O)NO)cn4)cc3n2)c1 (centres undefined)	< 100
CN(Cc1cc2nc(-c3ccc4c(c3)CC(=O)N4)nc(N3CCOCC3)c2s1)c1ncc(C(=O)NO)cn1	> 10000
CN(Cc1cc2nc(-c3cnc(OCc4ccccc4)nc3)nc(N3CCOCC3)c2s1)c1ncc(C(=O)NO)cn1	100 to 1000
CN(Cc1cc2nc(-c3ccc(N4CCCC4)cc3)nc(N3CCOCC3)c2s1)c1ncc(C(=O)NO)cn1	> 10000
CS(=O)(=O)N1CCN(Cc2cc3nc(-c4ccc(OCCCCCCC(=O)NO)cc4)nc(N4CCOCC4)c3s2)CC1	100 to 1000
COCCNc1nc(-c2cccc3[nH]ncc23)nc2cc(CN(C)c3ncc(C(=O)NO)cn3)sc12	> 10000
COc1ncc(-c2nc(N3CCOCC3)c3sc(NS(=O)(=O)c4cccc(C=CC(=O)NO)c4)cc3n2)cn1	< 100
CN1CCN(c2nc(-c3cccc4[nH]ncc34)nc3cc(CN(C)c4ncc(C(=O)NO)cn4)sc23)CC1	> 10000
CNc1ccc(-c2nc(N3CCOCC3)c3sc(CN(C)c4ncc(C(=O)NO)cn4)cc3n2)cc1	> 10000
CN(Cc1cc2nc(-c3ccc(F)cc3)nc(N3CCOCC3)c2s1)c1ncc(C(=O)NO)cn1	> 10000
CN(Cc1cc2nc(-c3ccc(S(C)(=O)=O)cc3)nc(N3CCOCC3)c2s1)c1ncc(C(=O)NO)cn1	> 10000
CN(Cc1cc2nc(-c3cccc(S(N)(=O)=O)c3)nc(N3CCOCC3)c2s1)c1ncc(C(=O)NO)cn1	100 to 1000
CN(Cc1cc2nc(-c3ccc(N)c(Cl)c3)nc(N3CCOCC3)c2s1)c1ncc(C(=O)NO)cn1	100 to 1000

Structure (SMILES)	IC50 [nM]
C[C@H](O)c1cccc(-c2nc(N3CCOCC3)c3sc(CN(C)c4ncc(C(=O)NO)cn4)cc3n2)c1	100 to 1000
COc1ccc(-c2nc(N3CCOCC3)c3sc(NCCCCC(=O)NO)cc3n2)cn1	< 100
Nc1ncc(-c2nc(N3CCOCC3)c3sc(NCCCC(=O)NO)cc3n2)cn1	< 100
Nc1ncc(-c2nc(N3CCOCC3)c3sc(NCCCCCC(=O)NO)cc3n2)cn1	< 100
O=C(CCCCNc1cc2nc(-c3cc(O)ccc3F)nc(N3CCOCC3)c2s1)NO	< 100
CC(=NO)c1cccc(-c2nc(N3CCOCC3)c3sc(CN(C)c4ncc(C(=O)NO)cn4)cc3n2)c1	100 to 1000
CN(Cc1cc2nc(-c3cccc4[nH]c(=S)[nH]c34)nc(N3CCOCC3)c2s1)c1ncc(C(=O)NO)cn1	< 100
CS(=O)(=O)N1CCN(Cc2cc3nc(-c4cccc5c4cnn5CCCCCC(=O)NO)nc(N4CCOCC4)c3s2)CC1	> 10000
CN(Cc1cc2nc(-c3ccc4c(c3)CCN4)nc(N3CCOCC3)c2s1)c1ncc(C(=O)NO)cn1	> 10000
O=C(C=Cc1cccc(S(=O)(=O)Nc2cc3nc(-c4cccc5[nH]ncc45)nc(N4CCOCC4)c3s2)c1)NO	< 100
CN(Cc1cc2nc(-c3cccc(C(C)(C)O)c3)nc(N3CCOCC3)c2s1)c1ncc(C(=O)NO)cn1	> 10000
Cc1ncc(-c2nc(N3CCOCC3)c3sc(NCCCCC(=O)NO)cc3n2)cn1	< 100
CN(Cc1cc2nc(-c3ccc(O)nc3)nc(N3CCOCC3)c2s1)c1ncc(C(=O)NO)cn1	100 to 1000
CN(Cc1cc2nc(-c3cccc4c3CCN4)nc(N3CCOCC3)c2s1)c1ncc(C(=O)NO)cn1	> 10000
COc1ncc(-c2nc(N3CCOCC3)c3sc(C(C)(C)Nc4ncc(C(=O)NO)cn4)cc3n2)cn1	< 100
COc1ccc(-c2nc(N3CCOCC3)c3sc(NS(=O)(=O)c4cccc(/C=C/C(=O)NO)c4)cc3n2)cn1	< 100
CS(=O)(=O)N1CCN(Cc2cc3nc(-c4cccc5[nH]ncc45)nc(N4CCN(CCCCCC(=O)NO)CC4)c3s2)CC1	> 10000
COc1ncc(-c2nc(N3CCOCC3)c3sc(C(C)(C)N(C)c4ncc(C(=O)NO)cn4)cc3n2)cn1	100 to 1000
CCN(CC)c1nc(-c2cccc3[nH]ncc23)nc2cc(CN(C)c3ncc(C(=O)NO)cn3)sc12	> 10000
Nc1ccc(-c2nc(N3CCOCC3)c3sc(C(=O)NCC4CCN(c5ncc(C(=O)NO)cn5)CC4)cc3n2)cc1	100 to 1000
CN(Cc1cc2nc(-c3ccc(N)c(CO)c3)nc(N3CCOCC3)c2s1)c1ncc(C(=O)NO)cn1	< 100

Structure (SMILES)	IC50 [nM]
O=C(NO)c1ccc2c(ccn2Cc2cc3nc(-c4cccc5[nH]ncc45)nc(N4CCOCC4)c3s2)c1	> 10000
CNc1ncc(-c2nc(N3CCOCC3)c3sc(NCCCCC(=O)NO)cc3n2)cn1	< 100
Nc1ccc(-c2nc(N3CCOCC3)c3sc(CN(CCO)c4ncc(C(=O)NO)cn4)cc3n2)cn1	< 100
Nc1ccc(-c2nc(N3CCOCC3)c3sc(S(=O)(=O)NCC4CCN(c5ncc(C(=O)NO)cn5)CC4)cc3n2)cc1	100 to 1000
CN(Cc1cc2nc(-c3ccc(N)cc3F)nc(N3CCOCC3)c2s1)c1ncc(C(=O)NO)cn1	100 to 1000
CS(=O)(=O)N1CCN(Cc2cc3nc(-c4cccc5[nH]ncc45)nc(N4CCN(CCCCCCC(=O)NO)CC4)c3s2)CC1	> 10000
CC(=O)c1cc(-c2nc(N3CCOCC3)c3sc(CN(C)c4ncc(C(=O)NO)cn4)cc3n2)ccc1N	100 to 1000
CN(Cc1cc2nc(-c3ccc(OCCN)nc3)nc(N3CCOCC3)c2s1)c1ncc(C(=O)NO)cn1	> 10000
CN(Cc1cc2nc(-c3ccc(OCc4ccccc4)nc3)nc(N3CCOCC3)c2s1)c1ncc(C(=O)NO)cn1	> 10000
COc1ccc(-c2nc(N3CCOCC3)c3sc(NCCCCCC(=O)NO)cc3n2)cn1	< 100
CNc1ccc(-c2nc(N3CCOCC3)c3sc(CNCc4nc5cc(C=CC(=O)NO)ccc5n4C)cc3n2)cn1	< 100
CC(C)c1ccc(-c2nc(N3CCOCC3)c3sc(CN(C)c4ncc(C(=O)NO)cn4)cc3n2)cc1	> 10000
COc1ccc(-c2nc(N3CCOCC3)c3sc(NS(=O)(=O)c4ccc(C=CC(=O)NO)cc4)cc3n2)cn1	100 to 1000
CS(=O)(=O)N1CCN(Cc2cc3nc(-c4cccc5nn(CCCCCCC(=O)NO)cc45)nc(N4CCOCC4)c3s2)CC1	> 10000
COc1ccc(-c2nc(N3CCOCC3)c3sc(S(=O)(=O)Nc4ncc(C(=O)NO)cn4)cc3n2)cn1	< 100
CS(=O)(=O)N1CCN(Cc2cc3nc(-c4ccc(OCCCCC(=O)NO)cc4)nc(N4CCOCC4)c3s2)CC1	100 to 1000
Cn1c(CNCc2cc3nc(-c4ccc(N)cc4)nc(N4CCOCC4)c3s2)nc2cc(C=CC(=O)NO)ccc21	100 to 1000
CN(Cc1cc2nc(-c3cccc4[nH]c(=O)sc34)nc(N3CCOCC3)c2s1)c1ncc(C(=O)NO)cn1	< 100
C[C@@H](O)c1cccc(-c2nc(N3CCOCC3)c3sc(CN(C)c4ncc(C(=O)NO)cn4)cc3n2)c1	100 to 1000
CS(=O)(=O)N1CCN(Cc2cc3nc(-c4cccc5[nH]ncc45)nc(NCCCCC(=O)NO)c3s2)CC1	> 10000
CNc1ccc(-c2nc(N3CCOCC3)c3sc(CN(C)Cc4nc5cc(C=CC(=O)NO)ccc5n4C)cc3n2)cn1	< 100

From the Kinase Knowledgebase extract (Sharma et al. 2016)
